Series [1] relates to MDR1-MDCK cell monolayers. Kind of series: MDCK-MDR1 permeability assay (BBB penetration potential). The series is classed as in vitro ADME. The note with it: dog, MDCK-MDR1, 120 min, 5 μM, pH 7.4. Here is the method: (§1) Each determination is performed in duplicate. […] Analytical conditions are outlined below.
Series [2] deals with MDR1. Described as above. The series is classed as in vitro ADME. Particulars: dog. The procedure:
as §1

In series [3] the test system is mHTT protein. The series is described as follows: mHTT protein assay (2B7-MW1, Mesoscale Discovery). The note with it: GM04724 (CAG 70/20) Huntington's disease patient lymphoblast cells, 48 hours, 2B7-MW1 MSD; read-out: HTT Potency - Protein EC50 mHTT (average). It counts as cell-based, human. In a few lines:
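GM04724 Huntington's patient lymphoblasts (CAG 70/20) were treated for 48 h at 10 μM to 0.6 nM. mHTT was quantified by 2B7-MW1 MSD immunoassay, whose signal depends on polyQ expansion and HTT fragment size. Viability was run on a parallel plate by CellTiter-Glo.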

Series [4] relates to Huntingtin (HTT) transcripts. The series is described as follows: Quantitative splicing assay (HTT), qPCR. The series is classed as cell-based. Particulars: Homo sapiens, GM04724 (CAG 70/20) Huntington's disease patient lymphoblasts, 24 h. In a few lines:
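GM04724 HD patient lymphoblasts (CAG 70/20) dosed 24 h with compound from 2.5 uM to 0.15 nM (0.1% DMSO). Lysates converted to cDNA; TaqMan qPCR measured compound-induced inclusion of a cryptic exon in HTT intron 49.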
Background: Real-time PCR tracks product formation cycle by cycle.

By efflux ratio is commonly meant a quotient of directional permeabilities that is used to spot active efflux. In general, Papp A→B refers to how fast a substance crosses the layer from the apical side. The term Papp B→A denotes how fast a substance crosses the layer from the basolateral side. Usually EC50 stands for the concentration that produces a half-maximal response.

SMILES strings stand for the structures. Like-named read-outs stand apart in the source and are kept apart here.

On to `Cn1cc(-c2cc(O)c(-c3ccc(O[C@@H]4C[C@H]5CCC[C@H](N5)[C@@H]4F)nn3)c(F)c2)cn1` (single isomer, unassigned) [118-ENT1], for which, in series [1], the “MDCK-MDR1: % Recov A-B” value is listed as 52%. The “MDCK-MDR1: % Recov B-A” value in series [1] is on record as 80%. Besides, the efflux ratio at 120 min, 5 μM in series [2] (MDCK-MDR1, pH 7.4, MDCK-MDR1: Efflux) was 5. In series [2] (MDCK-MDR1, pH 7.4, MDCK-MDR1: Papp A-B), this molecule registered a Papp A→B at 120 min, 5 μM of 6.21 ×10⁻⁶ cm/s. In addition, in series [2] (MDCK-MDR1, pH 7.4, MDCK-MDR1: Papp B-A), the Papp B→A at 120 min, 5 μM was 33.3 ×10⁻⁶ cm/s. Further, the EC50 in series [3] fell in the range of 51 to 100 nM; in series [4] (qPCR HTTex49_50, read-out: HTT Potency - Splicing: E49-50 EC50 (average)), 51 to 100 nM; in series [4] (qPCR cryptic exon 49b inclusion, read-out: HTT Potency - Splicing: E49b EC50 (average)) it was 51 to 100 nM.

For the origin of these results see patent US12522597B2, “Methods and compositions for modulating splicing” (Skyhawk Therapeutics, Inc., priority 2019, dated 2026).
